Test results as given in patent publication US20210261636A1, “NEOANTIGENS EXPRESSED IN MULTIPLE MYELOMA AND THEIR USES” (Janssen Biotech, Inc., priority 2020, published 2021).

Key:
[1] = tested on: CD8+ T cells; assay: Exogenous autologous healthy donor restimulation assay, TNFα and IFNγ production by CD8+ T cells; assay type: cell-based, human; parameters: Frequency (TNFα+ IFNγ+ CD8 T cells): unit not given here; settings: for Fold change (CD8+) vs. DMSO: maximum CD8+ T-cell response (TNFα and IFNγ); for Fold change (CD8+) vs. DMSO / Frequency (TNFα+ IFNγ+ CD8 T cells): donor independent, peptide pool 10 μg/mL, healthy donors; for Frequency (TNFα+ IFNγ+ CD8 T cells): maximum CD8+ T-cell response; for Immunogenic (yes/no): positive if CD8+ and/or CD4+ double positive TNFα/IFNγ frequency >=3-fold over DMSO and at least 0.01%
Description: (§1) Immunogenicity responses were measured by estimating TNFα IFNγ double positive cells in the CD4+ and/or CD8+ T-cell populations. A response is considered positive if TNFα IFNγ double positive fraction was greater than or equal to three-fold over unstimulated cells (DMSO negative control) with a minimum frequency >=0.01%. […]
(§2) Overlapping 15-mer peptides were designed to span each indicated neoantigen. Their ability to activate T cells was assessed using known methods, such as the assay defnied as exogenous autologous normal donor restimulation assay. The peptides were used as pools using TNFα and IFNγ production by CD8^+ and CD4^+ T cells as a readout. Maximum frequency of CD8^+TNFα^+IFNγ^+ and CD4^+TNFα^+IFNγ^+ T cells and maximum fold change over background for each pool of peptides were analyzed, which were calculated as the highest frequency of CD8^+ TNFα^+IFNγ^+ and CD4^+ TNFα^+IFNγ^+ T cells and resulting fold change across the normal donors evaluated for the peptide.
(§3) CD1c+Dendritic Cells (CD1c+DC) isolated from human healthy PBMCs were thawed using media (IMDM (Gibco) supplemented with glutamine, HEPES, 5% human serum (Sigma), and 1× Pen-Strep). DC cells were resuspended in media supplemented with IL-4 (Peprotech, 20 ng/mL) and GM-CSF (Gibco, 20 ng/mL), plated in 6 well microplates, and rested overnight at 37° C. and 5% CO2 incubator. The following day, DC cells were counted and plated in a 96 well round bottom microplate at a concentration of 30,000 viable cells per well. Lyophilized neoantigen peptide pools (15-mer peptides with 8-mer overlapping peptide sequences) were solubilized in 100% DMSO with a stock concentration of 20 mg/mL Neoantigen peptides pools were added to DCs for a final concentration of 10 μg/mL and rested for 2 hours at 37° C. and 5% CO2 incubator. CEF Peptide Pool “Plus” (Cellular Technologies, Ltd.) was utilized as a positive control (each viral peptide at a final concentration of 4 ug/ml) and DMSO at the same final concentration (0.05%) as the experimental peptides was utilized as a negative control. After 2 hours, DC cells were irradiated with 50 gray of ionizing radiation. Autologous CD3+ Pan-T cells isolated from human normal PBMCs were thawed using media. Following irradiation, autologous Pan-T cells were added to the irradiated DCs at 300,000 viable cells per well. Human IL-15 (Peprotech) was added to all wells at final concentration of 10 ng/ml. Plates were incubated at 37° C. and 5% CO2 incubator for a total of 12 days. Media was refreshed every 2-3 days with IL-15 (R&D System, 10 ng/mL final concentration) and IL-2 (R&D systems, 10 IU/mL final concentration).
(§4) On Day 11, cells were re-stimulated with identical experimental peptide pools or controls, at same concentration as peptide stimulation on Day 1. Protein Inhibitor Cocktail (eBioscience) was added to every well and plate was incubated overnight for 14-16 hours at 37° C. and 5% CO2 incubator. On Day 12, cells were stained for surface and intracellular flow cytometry analysis. The cells were washed with PBS and stained with Live/Dead Fixable Aqua Dead Cell stain (Thermo-Fisher). Following the live/dead stain, cells were blocked using Biotin-Free Fc Receptor Blocker (Accurate Chemical & Scientific Corp). Extracellular cellular flow panel (1 μL/antibody per well in 50 μL) consisted of CD3 PerCP-Cy5.5 (Biolegend), CD4 BV421 (Biolegend), and CD8 APC-Cy7 (Biolegend). After extracellular staining, cells were fixed and permeabilized using Foxp3/Transcription Factor Staining Buffer Set (eBioscience) and stained for intracellular proteins (1:50 dilution) using TNFα FITC (R&D Systems) and IFNγ BV785 (Biolegend). Cells were washed and resuspended in stain buffer, analyzed, and recorded in a BD Celesta flow cytometer.
(§5) Flow cytometry analysis was conducted on FlowJo v10.6 software. Cells were gated on live, singlet, CD3+, CD4+ and CD8+ T cells. The CD8+ and CD4+ T cells were analyzed for TNFα and IFNγ expression. […]

[2] = tested on: CD4+ T cells; assay: Exogenous autologous healthy donor restimulation assay, TNFα and IFNγ production by CD4+ T cells; assay type: cell-based, human; parameters: Frequency (TNFα+ IFNγ+ CD4 T cells): unit not given here; settings: donor independent, peptide pool 10 μg/mL, healthy donors; for Fold change (CD4+) vs. DMSO: maximum CD4+ T-cell response (TNFα and IFNγ); for Frequency (TNFα+ IFNγ+ CD4 T cells): maximum CD4+ T-cell response
Description: as §1, §2, §3, §4, §5

| Sequence | Fold change (CD8+) vs. DMSO [1] | Frequency (TNFα+ IFNγ+ CD8 T cells) [1] | Immunogenic (yes/no) [1] | Fold change (CD4+) vs. DMSO [2] | Frequency (TNFα+ IFNγ+ CD4 T cells) [2] |
| --- | --- | --- | --- | --- | --- |
| VHLDFSSAEMGFPHAAQANVELLGSSDLLT [AS116, alternative splicing, FCRL5] | 192.71 | 1.42 | Yes | 6.32 | 0.076 |
| QILEQPKQVRLKGWDFKC [AS68, alternative splicing, NFKB1] | 4 | 0.022 | Yes | 21.77 | 0.033 |
| QILQQALKIAFLKVVVPLKLHPYSFCH [AS132, alternative splicing, USP25] | 4.73 | 0.026 | Yes | 181.82 | 0.17 |
| SQKQPALKCLLRNNRP [AS84, alternative splicing, ANKRD36] | 162.14 | 4.54 | Yes | 10.66 | 0.019 |
| MKQFLDFGECGPGPWAFLRGPGRGAAAAAPGRVGAGQLSPEAHPSSSAFPPPAP [AS10, alternative splicing, PDK1] | 70.588 | 12 | Yes | 76.818 | 0.028 |
| YECTGCKTSFPHRSQS [FUS46, gene fusion GCNA-> LOC101059915] | 143.71 | 1.33 | Yes | 9.3 | 0.017 |
| NAVRSYYEGTENIVAV [FUS18, gene fusion CADPS2-> RNF148] | 542.51 | 0.671 | Yes | 0.95 | 0.005 |
| RSISLHKSDPSLLSPN [AS25, alternative splicing, TBCEL] | 43.6 | 0.028 | Yes | 57.01 | 0.061 |
| GFFETEMAVPFFSRKIRKVRRAIMKWTFCCYFY [AS118, alternative splicing, IARS] | 106.428 | 1.01 | Yes | 7.692 | 0.15 |
| SGLLMNTLTVLILYFLY [FUS9, gene fusion EAF2-> SLC15A2] | 5.53 | 0.13 | Yes | 3.08 | 0.031 |
| WLLRTWERADSGL [AS123, alternative splicing, PCNX3] | 5.371 | 0.046 | No | 2.25 | 0.05 |
| QIRVPSYSDEG [AS114, alternative splicing, CNTN5] | 7.6 | 0.14 | Yes | 2.05 | 0.02 |
| IIMALAILDLFAVLKIEAHKQLLLKSFCYGAGK [AS113, alternative splicing, CLCC1] | 5.07 | 0.38 | Yes | 5.7 | 0.009 |
| QRDRDSIKVGLKIYRLRNGLKGL [AS76, alternative splicing, TLE4] | 6.15 | 0.54 | Yes | 224.35 | 0.34 |
